Reference: paper PMC1716192, “A Plant-Derived Morphinan as a Novel Lead Compound Active against Malaria Liver Stages” (PLoS Medicine, 2006)
Read-outs that look alike come from different tables or passages of the source.

Experiments:
Assay type in all cases: cell-based
[1] = system: P. yoelii (265 BY strain) hepatic stages; assay: In vitro assay for P. yoelii liver stage inhibition in primary mouse hepatocytes
Protocol: (§1) P. yoelii (265 BY strain) and P. falciparum (NF 54 strain) sporozoites were obtained by dissection of infected Anopheles stephensi salivary glands. Primary mouse hepatocytes were isolated as previously described and seeded in eight-well Lab-Tek plastic chamber slides (VWR, Fontenay-sous-Bois, France) previously coated with rat-tail collagen I (BD Biosciences, Le Pont de Claix, France) at a density of 10^5 cells per well. Mouse hepatocytes were cultured at 37 °C in 5% CO2 in William's E medium supplemented with 10% fetal calf serum, 1% L-glutamine, 1% sodium pyruvate, 1% insulin-transferrin-selenium, 1% nonessential amino acids, and 1% penicillin-streptomycin (all from Invitrogen, Cergy-Pontoise, France), for 24 h before inoculation of P. yoelii sporozoites (10^5 per well). Human liver fragments were collected following informed consent provided from patients undergoing a partial hepatectomy. The collection and use of these tissues were undertaken in accordance with French Government ethical regulations. Primary human hepatocytes were isolated from the healthy parts of these liver biopsies as previously described. Human hepatocytes were seeded in LabTek plastic chamber slides coated with collagen, at a density of 1.8 × 10^5 cells per well and cultured at 37 °C in 5% CO2 in the same medium as above, supplemented with 10^−7 M dexamethasone (Sigma) and 2% DMSO after complete cell adherence (12–24 h), for at least 48 h before inoculation of P. falciparum sporozoites (10^5 per well). For a standard assay, the plant extract, the purified compound, or primaquine was solubilized in DMSO, further diluted in culture medium (equal DMSO concentrations of <0.3% per well), and then added to hepatocyte cultures at the time of sporozoite inoculation. Three hours later, after sporozoite penetration into hepatocytes, cultures were washed and further incubated in the presence of the drug. Culture medium containing the appropriate drug concentration was changed daily until 48 h for P. yoelii, or until 5 d for P. falciparum. Parasites were quantified on the last day of incubation. For the in vitro timing experiments, tazopsine treatment of P. yoelii and P. falciparum cultures was undertaken for different periods during the cultivation: 0 h to 3 h, 3 h to 24 h, or 24 h to 48 h after P. yoelii sporozoite inoculation (quantification at 48 h), or 0 h to 2 d, or 3 d to 5 d after P. falciparum sporozoite inoculation (quantification at 5 d). […] Cells were stained with Evans Blue (0.4%), and parasites and cells nuclei were stained with 1 μg/ml of diamidino-phenylindole (DAPI; Sigma). Parasite numbers were counted under a fluorescence microscope with a 25× light microscope objective.
(§2) IC50 and TC50 were calculated by nonlinear regression using four-parameter logistic curves on the SigmaPlot 10.0 software (http://www.systat.com). Each IC50 or TC50 is expressed as a mean between two independent experiments, followed by the standard error of the mean.

[2] = system: primary human hepatocytes; assay: In vitro assay for cell viability (neutral red), human hepatocytes; details: 5 d drug exposure
Protocol: (§3) Primary hepatocytes of mice or humans were prepared as above and seeded in 96-well plates coated with collagen, at a density of 5 × 10^4 and 7 × 10^4 cells per well, respectively. Drugs were added to the culture medium, which was changed daily after 24 h or 48 h of incubation for mouse and human hepatocytes, respectively. After 48 h of drug exposure (mouse hepatocytes) or 5 d (human hepatocytes), 50 μl of neutral red (Sigma) at 0.02% in phosphate-buffered saline (PBS) were added per well and incubated for 24 additional hours. Cultures were then washed with PBS and the neutral red extracted with 1% SDS from viable cells and quantified by measuring the OD540 on a microplate autoreader photometer (BioTek Instruments, Winooski, Vermont, United States).
as §2

[3] = system: P. falciparum (NF 54 strain) hepatic stages; assay: In vitro assay for P. falciparum liver stage inhibition in primary human hepatocytes; details: P. falciparum hepatic stages in primary human hepatocytes; for IC50: quantified at 5 d, read-out: IC50
Protocol: as §1, with “objective. IC50 values, the drug concentration at which a 50% reduction in the number of parasites was observed, as compared to the number in the DMSO control cultures, were derived from two independent experiments in which each concentration was tested in triplicate wells.” for “objective.”
as §2

[4] = system: primary mouse hepatocytes; assay: In vitro assay for cell viability (neutral red), mouse hepatocytes; details: 48 h drug exposure
Protocol: as §3, §2

[5] = Plasmodium yoelii, Hepatocyte, 48 h

`COC1=CC=C2[C@H]3Cc4ccc(OC)c5c4[C@@]2(CCN3C)[C@H]1O5` [thebaine, reference compound] gave an IC50 [1, 5] greater than 100 µM.
In the case of `COc1cc(NC(C)CCCN)c2ncccc2c1` (stereo not shown) [Primaquine, reference compound], the TC50 [2] is reported as 65.2 ± 11.9 µM, the IC50 [3] is reported as 0.8 ± 0.9 µM and the IC50 ([3]; Plasmodium falciparum, Hepatocyte, 120 h) is reported as roughly 1 µM. The IC90 ([3]; Plasmodium falciparum, Hepatocyte, 120 h, 5 d, read-out: IC90) was 4.1 ± 0.5 µM, the IC50 ([1]; P. yoelii hepatic stages in primary mouse hepatocytes, quantified at 48 h, read-out: IC50) was 0.64 ± 0.1 µM and the IC50 ([1]; Plasmodium yoelii, Hepatocyte, 48 h, P. yoelii hepatic stages in primary mouse hepatocytes, quantified at 48 h, read-out: IC50) was roughly 1 µM. For the same compound, the IC90 ([1]; Plasmodium yoelii, Hepatocyte, P. yoelii hepatic stages in primary mouse hepatocytes, 48 h, read-out: IC90) was greater than 30 µM and the TC50 [4] was 70.5 ± 4.3 µM.
In the case of `COc1ccc2c3c1O[C@H]1[C@@H](O)C=C[C@H]4[C@@H](C2)N(C)CC[C@@]341` [codeine, reference compound], the IC50 [1, 5] is reported as greater than 100 µM.
